In the NIST ThermoML archive (doi:10.1016/j.jct.2012.09.012):

Assay: xn = mol fraction of the nth substance listed
Conditions: Liquid, Vibrating tube method

CC1=CC[C@H]2C[C@@H]1C2(C)C [(S)-2-pinene] + C=C1CCC2CC1C2(C)C
mass density [kg/m3]
Conditions | x1 = 0.1044 | x1 = 0.1926 | x1 = 0.3036 | x1 = 0.3949 | x1 = 0.502 | x1 = 0.6052 | x1 = 0.7022 | x1 = 0.7983 | x1 = 0.9028 | x1 = 1
283.15 K, 20000 kPa | 890.1 | 889 | 887.9 | 886.9 | 885.7 | 884.7 | 883.4 | 882.3 | 881.1 | 880
283.15 K, 25000 kPa | 893.1 | 891.9 | 890.9 | 889.9 | 888.7 | 887.8 | 886.6 | 885.4 | 884.3 | 883.2
283.15 K, 30000 kPa | 896 | 894.8 | 893.7 | 892.9 | 891.6 | 890.7 | 889.3 | 888.5 | 887.4 | 886.3
283.15 K, 35000 kPa | 898.9 | 897.7 | 896.7 | 895.8 | 894.7 | 893.7 | 892.5 | 891.6 | 890.3 | 889.4
283.15 K, 40000 kPa | 901.7 | 900.6 | 899.4 | 898.6 | 897.5 | 896.6 | 895.3 | 894.6 | 893.5 | 892.5
298.15 K, 20000 kPa | 879.6 | 878.2 | 876.9 | 875.8 | 874.6 | 873.4 | 872.3 | 871.2 | 870 | 868.8
298.15 K, 25000 kPa | 882.5 | 881.3 | 880 | 879 | 877.8 | 876.7 | 875.6 | 874.5 | 873.3 | 872.1
298.15 K, 30000 kPa | 885.3 | 884.2 | 883 | 882 | 880.8 | 879.7 | 878.8 | 877.6 | 876.4 | 875.3
298.15 K, 35000 kPa | 888.3 | 887.3 | 886.1 | 885.1 | 884 | 882.9 | 882 | 880.8 | 879.7 | 878.6
298.15 K, 40000 kPa | 891.1 | 890.2 | 889.1 | 888 | 887.1 | 886 | 885.1 | 884 | 882.9 | 881.9
313.15 K, 20000 kPa | 868 | 867 | 865.9 | 864.9 | 863.6 | 862.6 | 861.4 | 860.3 | 859 | 858
313.15 K, 25000 kPa | 871.4 | 870.3 | 869.2 | 868.2 | 867 | 865.8 | 864.7 | 863.6 | 862.4 | 861.3
313.15 K, 30000 kPa | 874.6 | 873.5 | 872.4 | 871.4 | 870.2 | 869.1 | 868 | 866.9 | 865.7 | 864.7
313.15 K, 35000 kPa | 877.8 | 876.7 | 875.5 | 874.6 | 873.4 | 872.3 | 871.2 | 870.2 | 869.1 | 867.9
313.15 K, 40000 kPa | 881.1 | 879.9 | 878.7 | 877.8 | 876.6 | 875.5 | 874.5 | 873.5 | 872.4 | 871.3
328.15 K, 20000 kPa | 857.2 | 855.9 | 855 | 853.7 | 852.5 | 851.3 | 850.2 | 849.1 | 847.9 | 846.7
328.15 K, 25000 kPa | 860.6 | 859.5 | 858.3 | 857.2 | 856.1 | 854.9 | 853.8 | 852.7 | 851.5 | 850.4
328.15 K, 30000 kPa | 864.1 | 863.1 | 862 | 860.8 | 859.6 | 858.5 | 857.4 | 856.3 | 855.1 | 854
328.15 K, 35000 kPa | 867.5 | 866.6 | 865.4 | 864.3 | 863.1 | 861.9 | 860.9 | 859.8 | 858.6 | 857.5
328.15 K, 40000 kPa | 870.8 | 870 | 868.9 | 867.7 | 866.6 | 865.5 | 864.3 | 863.4 | 862.1 | 861.1
343.15 K, 20000 kPa | 846.7 | 845.5 | 844.3 | 843.2 | 841.9 | 840.7 | 839.4 | 838.3 | 837 | 835.9
343.15 K, 25000 kPa | 850.5 | 849.3 | 848.1 | 847 | 845.7 | 844.6 | 843.3 | 842.1 | 840.9 | 839.7
343.15 K, 30000 kPa | 854.2 | 853 | 851.9 | 850.9 | 849.6 | 848.5 | 847.2 | 846.2 | 844.9 | 843.8
343.15 K, 35000 kPa | 857.7 | 856.6 | 855.5 | 854.5 | 853.3 | 852.2 | 851 | 850 | 848.7 | 847.7
343.15 K, 40000 kPa | 861.3 | 860.2 | 859.1 | 858.1 | 857 | 855.9 | 854.7 | 853.7 | 852.4 | 851.4
358.15 K, 20000 kPa | 835.9 | 834.6 | 833.3 | 832.2 | 831 | 829.8 | 828.5 | 827.3 | 826.1 | 825
358.15 K, 25000 kPa | 839.8 | 838.6 | 837.4 | 836.3 | 835 | 833.9 | 832.7 | 831.5 | 830.3 | 829.2
358.15 K, 30000 kPa | 843.7 | 842.5 | 841.3 | 840.3 | 839 | 838 | 836.7 | 835.6 | 834.4 | 833.3
358.15 K, 35000 kPa | 847.6 | 846.4 | 845.2 | 844.2 | 843 | 841.8 | 840.7 | 839.6 | 838.4 | 837.4
358.15 K, 40000 kPa | 851.5 | 850.4 | 849.1 | 848.2 | 847.1 | 846 | 844.8 | 843.8 | 842.6 | 841.5
